{
  "source": "patent US9192554B2",
  "about": "“Use of chicoric acid and lactic bacterium in food supplement for regulating skin pigmentation” (Nestec S.A., priority 2010, dated 2015)",
  "system": "B16 murine melanocytes",
  "experiment": "Production of melanin by B16 murine melanocyte cell line",
  "assay_type": "cell-based",
  "settings": "72 hours, Kojic acid at 400 μg/mL",
  "protocol": "In order to evaluate the potential beneficial effect of ingredients towards skin de- or pro-pigmentation we used 2D culture of murine melanocytes (B16) and we performed 2 tests: 1-assessment of melanin production and 2-assessment of tyrosinase production. 1. The Cell Culture Conditions. • B16 cells were cultured in DMEM 1 g/L glucose without phenol red supplemented with 10% foetal calf serum, in a humidified chamber at 37° C. and containing 5% CO2. 2. The Production of Melanin by B16 Murine Melanocyte Cell Line. • Cells were incubated with the selected ingredients or the test references (Kojic acid at 400 μg/mL) for 72 hours, in the presence or absence of NDP-MSH an analog of MSH. The total quantity of melanin (extracellular and intracellular) was evaluated by measurement of the optical density at 405 nm of each sample against melanin standards in presence or in absence of NDP-MSH. Chicoric acid has been pre-treated with La-1 [(spray dried culture Lactobacillus Johnsonii CNCM I-1225, 1.19E10 cfu/g) for 24 hours in a thermomixer at 40° C., under shaking conditions. After incubation, samples have been centrifuged 5 minutes at 3000 g. After this treatment the probiotic as such is not present anymore in the sample however the presence of its metabolites can't be excluded.",
  "data": [
    {"smiles": "O=c1cc(CO)occ1O", "note": "[Kojic acid]", "values": [
      {"measurement": "Melanin content (effect in words)", "value": "decrease in melanin content"}
    ]}
  ]
}
